Measured values published in US20040132740A1, “Novel antibiotics” (priority 2001, published 2004).
Counter-ions that a name gives are not always drawn.

Legend:
E. coli = test: Minimum inhibitory concentration in vitro against E. coli; assay type: cell-based; conditions: Escherichia coli, aqueous solution of hydrochloride salts
Protocol: (§1) An aqueous solution of the salts of the compounds reported in this invention namely compound (A) and compound (B) were tested in vitro against E. coli and St. aureus according to an established clinical procedure (Mackie and McCartney: Practical Medical Microbiology, Churchill livingstone, 1996, 14th edition, p159-163).

St. aureus = test: Minimum inhibitory concentration in vitro against St. aureus; assay type: cell-based; conditions: Staphylococcus aureus, aqueous solution of hydrochloride salts
Protocol: as §1

Staphylococcus aureus = test: MIC / effective maintenance dose to control bacterial re-growth, clinically isolated Staphylococcus aureus; assay type: cell-based; conditions: clinically isolated microorganism, read-out: effective maintenance dose necessary to control bacterial re-growth (MIC), Staphylococcus aureus
Protocol: (§2) The minimum inhibitory concentration (MIC) of compound (A) and ciprofloxacin were also studied using clinically isolated microorganism staphylococcus aureus and pseudomotias aeruginose.
(§3) The experimental work was carried out according to an established clinical procedure […] (Mackie and McCartney, ibid).

Pseudomones aeruginose = test: MIC / effective maintenance dose to control bacterial re-growth, clinically isolated Pseudomones aeruginose; assay type: cell-based; conditions: clinically isolated microorganism
Protocol: as §2, §3

LD50 on mice = conditions: mouse, in vivo
[1] = system: gram-positive and gram-negative organisms; test: Antibacterial effect compared with ciprofloxacin hydrochloride under the same experimental conditions; assay type: cell-based, E. coli and St. aureus; conditions: hydrochloride salt
Protocol: as §1

bacteria = test: Further incubation of the positive samples for up to 16 hours (bacterial re-growth); assay type: cell-based
Protocol: as §3

Row | Structure (SMILES) | melting point [°C] | MIC (E. coli) [µg/mL] | MIC (St. aureus) [µg/mL] | MIC (Staphylococcus aureus) [µg/mL] | effective maintenance dose necessary to control bacterial re-growth (MIC), Pseudomones aeruginose (Pseudomones aeruginose) [µg/mL] | LD50 (LD50 on mice) [mg/kg] | antibacterial effect towards gram-positive and gram-negative organisms [1] | sensitivity and effectiveness as antibacterial agent (bacteria; compared with ciprofloxacin hydrochloride) | bacterial growth after further incubation of the positive samples (bacteria; incubation up to 16 hours, dose of 0.0 μg/ml printed for compound (A))
1 | CN1CCN(c2cc3c(cc2F)c(=O)ccn3C2CC2)CC1 (as salt: hydrochloride) [Compound (B), 1-cyclopropyl-6-fluoro-1,4-dihydro-4-oxo-7-(1-(4-methyl)piperazinyl)-quinoline] | 238 to 240 | – | – | – | – | – | – | – | –
2 | O=c1ccn(C2CC2)c2cc(N3CCNCC3)c(F)cc12 [Compound (A) HCl salt, 1-cyclopropyl-6-fluoro-1,4-dihydro-4-oxo-7(1-piperazinyl)-quinoline] | – | 0.01 | 0.08 | 0.06 | 0.05 | 28 | better antibacterial effect | more sensitive and effective | very slow bacterial growth
3 | CN1CCN(c2cc3c(cc2F)c(=O)ccn3C2CC2)CC1 [Compound (B), 1-cyclopropyl-6-fluoro-1,4-dihydro-4-oxo-7-(1-(4-methyl)piperazinyl)-quinoline] | – | – | – | – | – | – | better antibacterial effect | – | –
